Several values for one entry are separate records, joined by “and”; a condition that tells them apart may be missing. Equal values may be shown once. Read-outs that look alike come from different tables or passages of the source.

In one experiment the target is T1, c-Src (Homo sapiens, UniProt P12931).
T1 construct: purchased Upstate Biotechnologies
Kind of experiment: c-Src Kinase Assay (ELISA format). The class given is biochemical. The method, then:
Inhibitors of Src (partially purified preparation purchased from Upstate Biotechnologies) tyrosine kinase activity are analyzed in an ELISA format. […] Horseradish Peroxidase (HRP)-conjugated anti-phosphotyrosine is used to detect phosphorylated peptide via a color reaction. Conditions recommended by the manufacturer are employed.
Reaction conditions: Five microliter aliquots of each compound prepared fresh at the time of the assay are added as a solution in 10mM HEPES pH 7.5, 10% DMSO to the reaction well. Thirty-five microliters of reaction mix containing Src, buffer and peptide/bovine serum albumin mix are added to the compound wells and incubated at 30°C for 10 minutes (reaction buffer: 50mM TrisHCl pH 7.5, 10mM MgCl2, 0.1mM EGTA, 0.5mM Na3VO4). The reaction is started by addition of 10 microliters of ATP, incubated at 30°C for 1 hour, and stopped by addition of 20 microliters of 0.5M EDTA. The reaction mixture with the phosphorylated peptide is then transferred to a streptavidin-coated microtiter plate (provided in the kit) and allowed to bind for 20 minutes. Unbound peptide and reaction mixture is decanted and the plate is washed with PBS six times. HRP-conjugated phosphotyrosine antibody supplied in the kit is incubated with the plate for one hour, then decanted. The plate is again washed with PBS six times.
Activity is determined as % inhibition as calculated by the formula: (1 - Abs/Abs(max)) x 100 = % inhibition.
(ELISA stands for enzyme-linked immunosorbent assay.)

For experiment [1], the system named is Rat2 fibroblasts stably transformed with a plasmid containing a CMV promotor controlled v-Src/Hu c-Src fusion gene. Kind of experiment: Anchorage Independent Src-transformed Fibroblast Proliferation Assay.
[2] abbreviates: Rattus norvegicus, Rat2, 120 h, read-out: anch-indep src-tx fib IC50.

In the case of “4-(2,4-Dichloro-5-methoxyanilino)-6-methoxy-7-(1H-pyrrol-1-yl)-3-quinolinecarbonitrile [Example 59]”, the IC50 on c-Src is 12 nM and 15 nM.
As to “4-(2,4-dichloro-5-methoxyanilino)-7-{4-[(4-methyl-1-piperazinyl)]phenyl}-3-quinolinecarbonitrile [Example 218]”, in experiment [1] (read-out: anch-indep src-tx fib IC50, suspension growth, MTS on Day 5), the IC50 was determined as 600 nM.
In turn, `N#Cc1cnc2cc(-c3csc(CN4CCOCC4)c3)ccc2c1Nc1ccc(Cl)cc1F` [Example 1, 4-(4-Chloro-2-fluoroanilino)-7-[5-(4-morpholinylmethyl)-3-thienyl]-3-quinolinecarbonitrile] returned an IC50 at c-Src of 25 nM.
`N#Cc1cnc2cc(C#CCO)ccc2c1Nc1ccc(Cl)cc1Cl` [Example 14, 4-(2,4-Dichloroanilino)-7-(3-hydroxy-1-propynyl)-3-quinolinecarbonitrile] returned an inhibition at 1 µM against c-Src (at 1 µM) of 40%.
For `N#Cc1cnc2cc(-c3ccc(-c4ccccn4)s3)ccc2c1Nc1ccc(Cl)cc1Cl` [Example 18, 4-(2,4-Dichloroanilino)-7-[5-(2-pyridinyl)-2-thienyl]-3-quinolinecarbonitrile], half-maximal inhibition on c-Src (IC50) was put at 180 nM.
Still for that read-out and setting: as for `COc1cc(Nc2c(C#N)cnc3cc(-c4ccc(/C=C/CN5CCOCC5)s4)ccc23)c(Cl)cc1Cl` [Example 21, 4-(2,4-Dichloro-5-methoxyanilino)-7-{5-[(E)-3-(4-morpholinyl)-1-propenyl]-2-thienyl}-3-quinolinecarbonitrile], the figure is 40 nM and 9 nM; as for `COc1cc(Nc2c(C#N)cnc3cc(-c4cccc(CN5CCOCC5)c4)ccc23)c(Cl)cc1Cl` [Example 26, 4-(2.4-Dichloro-5-methoxyanilino)-7-[3-(4-morpholinylmethyl)phenyl]-3-quinolinecarbonitrile], 24 nM.
In the case of `COc1cc(Nc2c(C#N)cnc3cc(-c4ccc(CCN5CCOCC5)cc4)ccc23)c(Cl)cc1Cl` [Example 27, 4-(2,4-Dichloro-5-methoxyanilino)-7-{4-[2-(4-morpholinyl)ethyl]phenyl}1-3-quinolinecarbonitrile], in experiment [1] (Rattus norvegicus, Rat2, 120 h, read-out: anch-indep src-tx fib IC50, suspension growth, MTS on Day 5), the IC50 is 1020 nM.
As for `CCN1CCN(Cc2ccc(-c3ccc4c(Nc5cc(OC)c(Cl)cc5Cl)c(C#N)cnc4c3)cc2)CC1` [Example 30, 4-(2,4-Dichloro-5-methoxyanilino)-7-{4-[(4-ethyl-1-piperazinyl)methyl]phenyl}-3-quinolinecarbonitrile], on c-Src, the 50% inhibitory concentration (IC50) was 4.4 nM and 1.5 nM.
On the same count and under the same terms, as for `CCN1CCN(Cc2ccc(-c3cc4ncc(C#N)c(Nc5cc(OC)c(Cl)cc5Cl)c4cc3OC)cc2)CC1` [Example 31, 4-(2,4-Dichloro-5-methoxyanilino)-7-{4-[(4-ethyl-1-piperazinyl)methyl]phenyl}-6-methoxy-3-quinolinecarbonitrile], the figure is 8.3 nM and 5.6 nM; as for `COc1cc(Nc2c(C#N)cnc3cc(-c4ccc(CN5CCOCC5)c(CN5CCOCC5)c4)ccc23)c(Cl)cc1Cl` [Example 34, 7-[3,4-Bis(4-morpholinylmethyl)phenyl]-4-(2,4-dichloro-5-methoxyanilino)-3-quinolinecarbonitrile], 3 nM.
On c-Src, `COc1cc(Nc2c(C#N)cnc3cc(-c4cccc(CN5CCOCC5)c4)c(OC)cc23)c(Cl)cc1Cl` [Example 39, 4-(2,4-Dichloro-5-methoxyanilino)-6-methoxy-7-[3-(4-morpholinylmethyl]phenyl}-3-quinolinecarbonitrile] yielded an IC50 of 220 nM.
The same measure, in the same setting: as for `COc1cc(Nc2c(C#N)cnc3cc(-c4ccc(CCN5CCOCC5)cc4)c(OC)cc23)c(Cl)cc1Cl` [Example 40, 4-(2,4-Dichloro-5-methoxyanilino)-6-methoxy-7-{4-[2-(4-morpholinyl)ethyl]phenyl}-3-quinolinecarbonitrile], the figure is 10 nM.
For the molecule `COc1cc(Nc2c(C#N)cnc3cc(-c4ccc(CN5CCN(C)CC5)o4)ccc23)c(Cl)cc1Cl` [Example 41], the IC50 in experiment [1] (setting [2]) worked out at 380 nM.
At c-Src, `COc1cc(Nc2c(C#N)cnc3cc(-c4csc(C5OCCO5)c4)ccc23)c(Cl)cc1Cl` [Example 42, 4-(2,4-Dichloro-5-methoxyanilino)-7-[5-(1,3-dioxolan-2-yl)-3-thienyl]-3-quinolinecarbonitrile] registered an IC50 of 2.7 nM.
Same read-out and setting: with `COc1cc(Nc2c(C#N)cnc3cc(-c4csc(C=O)c4)ccc23)c(Cl)cc1Cl` [Example 43, 4-(2,4-Dichloro-5-methoxyanilino)-7-(5-formyl-3-thienyl)-3-quinolinecarbonitrile] the figure was 1.7 nM; with `N#Cc1cnc2cc(-c3csc(C=O)c3)ccc2c1Nc1ccc(Cl)cc1Cl` [Example 44, 4-(2,4-Dichloroanilino)-7-(5-formyl-3-thienyl)-3-quinolinecarbonitrile], 25 nM; with `COc1cc(Nc2c(C#N)cnc3ccc(-c4csc(C=O)c4)cc23)c(Cl)cc1Cl` [Example 45, 4-(2,4-Dichloro-5-methoxyanilino)-6-(5-formyl-3-thienyl)-3-quinolinecarbonitrile], 51 nM.
As for `COc1cc(Nc2c(C#N)cnc3ccc(-c4csc(CN5CCOCC5)c4)cc23)c(Cl)cc1Cl` [Example 50, 4-(2.4-Dichloro-5-methoxyanilino)-6-[5-(4-morpholinylmethyl)-3-thienyl]3-quinolinecarbonitrile], at c-Src, the IC50 was 111 nM.
Consider `COc1cc(Nc2c(C#N)cnc3cc(-c4ccc(CN5CCOCC5)cn4)ccc23)c(Cl)cc1Cl` [Example 57, 4-(2,4-Dichloro-5-methoxyanilino)-7-[5-(4-morpholinylmethyl)-2-pyridinyl]-3-quinolinecarbonitrile], for which, in experiment [1] (setting [2]), the IC50 turned out to be 50 nM.
Turning to `COc1cc(Nc2c(C#N)cnc3cc(-c4cc(CN5CCOCC5)cs4)ccc23)c(Cl)cc1Cl` [Example 68, 4-(2,4-Dichloro-5-methoxyanilino)-7-[4-(4-morpholinylmethyl)-2-thienyl]-3-quinolinecarbonitrile], at c-Src, the IC50 amounted to 1.5 nM.
Same read-out and setting: with `COc1cc(Nc2c(C#N)cnc3cc(-c4cnc(C=O)n4C)ccc23)c(Cl)cc1Cl` [Example 96, 4-(2,4-Dichloro-5-methoxyanilino)-7-(2-formyl-1-methyl-1H-imidazol-5-yl)-3-quinolinecarbonitrile] the figure was 240 nM.
At c-Src (at 10 µM), `COc1cc(Nc2c(C#N)cnc3cc(-c4cccc([N+](=O)[O-])c4)ccc23)c(Cl)cc1Cl` [Example 122, 4-(2,4-Dichloro-5-methoxyanilino)-7-(3-nitrophenyl)-3-guinolinecarbonitrile] registered an inhibition at 10 µM of 44%.
`COc1cc(Nc2c(C#N)cnc3cc(-c4ccc(CN5CC[S+]([O-])CC5)cc4)ccc23)c(Cl)cc1Cl` [Example 151, 4-[(2,4-dichloro-5-methoxyphenyl)amino]-7-{4-[(1-oxido-4-thiomorpholinyl)methyl]phenyl}-3-quinolinecarbonitrile] displayed an IC50 on c-Src of 4.7 nM.
The same measure, in the same setting: as for `COc1cc(Nc2c(C#N)cnc3cc(-c4ccc(CN5CCC(C(=O)O)CC5)cn4)ccc23)c(Cl)cc1Cl` [Example 177, 1-{6-[3-cyano-4-(2,4-dichloro-5-methoxyphenylamino)-quinolin-7yl]-pyridin-3-ylmethyl}-piperidine-4-carboxylic acid], the figure is 0.69 nM; as for `COc1cc(Nc2c(C#N)cnc3cc(-c4ccc(N5CCOCC5)nc4)ccc23)c(Cl)cc1Cl` [Example 185, 4-(2,4-dichloro-5-methoxyanilino)-7-[6-(4-morpholinyl)-3-pyridinyl]-3-quinolinecarbonitrile], 3.4 nM.
In the case of `CCN1CCN(c2ccc(-c3ccc4c(Nc5cc(OC)c(Cl)cc5Cl)c(C#N)cnc4c3)cn2)CC1` [Example 197, 4-(2,4-dichloro-5-methoxyanilino)-7-[6-(4-ethyl-1-piperazinyl)-3-pyridinyl]-3-quinolinecarbonitrile], the IC50 at c-Src came out at 4.4 nM.
As for `COc1cc(Nc2c(C#N)cnc3cc(-c4ccc(N5CCN(C)CC5)nc4)ccc23)c(Cl)cc1Cl` [Example 198, 4-(2,4-dichloro-5-methoxyanilino)-7-[6-(4-methyl-1-piperazinyl)-3-pyridinyl]-3-quinolinecarbonitrile], at c-Src, it took 1.9 nM to reach half-maximal inhibition (IC50).
For `COc1cc(Nc2c(C#N)cnc3cc(-c4cnc(CN5CCOCC5)n4C)ccc23)c(Cl)cc1Cl` [Example 226, 4-(2,4-dichloro-5-methoxyanilino)-7-[1-methyl-2-(4-morpholinylmethyl)-1H-imidazol-5-yl]-3-quinolinecarbonitrile], the IC50 against c-Src was determined as 31 nM.
Same read-out and setting: with `COc1cc(Nc2c(C#N)cnc3cc(-c4cnc(CN5CCN(C)CC5)n4C)ccc23)c(Cl)cc1Cl` [Example 227, 4-(2,4-dichloro-5-methoxyanilino)-7-{1-methyl-2-[(4-methyl-1-piperazinyl)methyl]-1H-imidazol-5-yl}-3-quinolinecarbonitrile] the figure was 25 nM; with `COc1cc(Nc2c(C#N)cnc3cc(-c4cnc(CN5CCN(C)CC5)n4C)c(OC)cc23)c(Cl)cc1Cl` [Example 233, 4-(2,4-dichloro-5-methoxyanilino)-6-methoxy-7-{1-methyl-2-[(4-methyl-1-piperazinyl)methyl]-1H-imidazol-5-yl}-3-quinolinecarbonitrile], 28 nM.

As usually defined, the IC50 is the concentration that gives 50% inhibition. For orientation: inhibition means the change of the read-out against control, counted positive when it falls.

(Values after patent EP1268431B1 (Wyeth, priority 2000, dated 2001).)
